Experimental data reported in patent publication EP0714604A1, “A composition having insecticidal and acaricidal properties” (MITSUI TOATSU CHEMICALS, INCORPORATED, priority 1994, dated 1996).

Tests used:
Format in all cases: in vivo
[1] = tested on: resistant strain (selected by Compound No.1) of the Kanzawa spider mite; assay: Test 9: effect on a resistant strain (selected by Compound No.1) of the Kanzawa spider mite (LC50); conditions: eggs on kidney bean leaf sections sprayed, 25°C, eight days after the treatment
Experimental: (§1) About 2 cm square sections of kidney bean leaves were placed on wetted absorbent cotton. Then, 7 female adults of the Kanzawa spider mite were inoculated on each leaf section and allowed to deposit eggs. After 24 hours, the adult mites were removed, various dilutions of an emulsion of a compound of the general formula (1) [i.e., 20% Trebon Emulsion (Compound No.2), an emulsion of Compound No.3, an emulsion of Compound No.4, or Shironen Emulsion (Compound No.5)], 1% Milbenock Emulsion or a mixture thereof were sprayed by means of a tower sprayer, and the leaf sections were maintained in a thermostatic chamber kept at 25°C. Eight days after the treatment, the numbers of surviving mites, dead mites, unhatched eggs and escaping mites were examined. Thus, the survival rates at various concentrations were calculated and the LC₅₀ value (in ppm) was determined therefrom.
(§2) In order to evaluate the synergistic effect of each compound of the general formula (1) and the macrolide compound, the combined toxicity index was calculated from the LC₅₀ values of the respective compounds in the same manner as in Test 1.

[2] = tested on: second-instar larvae of the diamond-back moth; assay: Test 8: effect on the diamondback moth (residual activity on sprayed potted cabbages); conditions: dead larvae 2 days after feeding
Source text: Potted cabbages were sprayed with a diluted fluid of an emulsion of a compound of the general formula (1) [i.e., 10% Anniverse Emulsion (Compound No.1), 20% Trebon Emulsion (Compound No.2), an emulsion of Compound No.3, an emulsion of Compound No.4, or Shironen Emulsion (Compound No.5)], 0.6% Avermectin Emulsion or a mixture thereof to such an extent that the fluid dripped from their leaves. Subsequently, cabbage leaves were sampled at predetermined intervals and fed to second-instar larvae of the diamond-back moth. Then, the number of dead larvae was examined after 2 days from the feeding.

[3] = tested on: resistant strain of the Kanzawa spider mite; assay: Test 2: effect on a resistant strain of the Kanzawa spider mite (leaf section spray, LC50); conditions: eggs on kidney bean leaf sections sprayed, 25°C, eleven days after the treatment
Experimental: as §1, with “removed, 4 ml each of” for “removed,”, “10% Anniverse Emulsion (Compound No.1),” for “an emulsion of a compound of the general formula (1) [i.e.,”, “0.6% Avermectin” for “an emulsion of Compound No.3, an emulsion of Compound No.4, or Shironen Emulsion (Compound No.5)], 1% Milbenock”, “Eleven” for “Eight”
as §2

Kanzawa spider mite = assay: Test 5: effect on the Kanzawa spider mite living on potted kidney bean plants (mite counts); conditions: Compound No.1 25 ppm, 51 before treatment
Source text: Potted kidney bean plants in the first true leaf stage were inoculated with female adults of the Kanzawa spider mite and allowed to stand in a greenhouse for about a week. After leaves infested with Kanzawa spider mites were marked, the kidney bean plants were sprayed with a diluted fluid of 10% Anniverse Emulsion (Compound No.1), a macrolide compound (i.e., 0.6% Avermectin Emulsion or 1% Milbenock Emulsion) or a mixture thereof to such an extent that the fluid dripped from their leaves. The number of Kanzawa spider mites living on the marked leaves was counted 2, 7, 12, 16 and 27 days after the treatment.

[4] = tested on: resistant strain of the citrus red mite; assay: Test 4: effect on a resistant strain of the citrus red mite (leaf section spray, LC50); conditions: eggs on mandarin tree leaf sections sprayed, 25°C, eleven days after the treatment
Experimental: as §1, with “mandarin tree” for “kidney bean”, “citrus red” for “Kanzawa spider”, “removed, 4 ml each of” for “removed,”, “10% Anniverse” for “an emulsion of a compound of the general formula (1) [i.e., 20% Trebon”, “No.1), 0.6% Avermectin” for “No.2), an emulsion of Compound No.3, an emulsion of Compound No.4, or Shironen Emulsion (Compound No.5)], 1% Milbenock”, “Eleven” for “Eight”

[5] = tested on: resistant strain of the Kanzawa spider mite; assay: Test 3: effect on a resistant strain of the Kanzawa spider mite, Milbenock Emulsion as macrolide (LC50); conditions: 1% Milbenock Emulsion as macrolide, eleven days after the treatment
Experimental: A test was carried out in the same manner as in Test 1, except that, in place of 0.6% Avermectin Emulsion, 1% Milbenock Emulsion was used as the macrolide compound.

[6] = tested on: sensitive strain of the Kanzawa spider mite; assay: Test 1: effect on a sensitive strain of the Kanzawa spider mite (leaf section spray, LC50); conditions: eggs on kidney bean leaf sections sprayed, 25°C, eleven days after the treatment
Experimental: as §1, with “removed, 4 ml each of” for “removed,”, “10% Anniverse” for “an emulsion of a compound of the general formula (1) [i.e., 20% Trebon”, “No.1), 0.6% Avermectin” for “No.2), an emulsion of Compound No.3, an emulsion of Compound No.4, or Shironen Emulsion (Compound No.5)], 1% Milbenock”, “Eleven” for “Eight”
In order to evaluate the synergistic effect of the compound of the general formula (1) and the macrolide compound, the combined toxicity index was calculated from the LC₅₀ values of the respective compounds according to the equation of Y.P. Sun et al. (J. Econ. Ent., 53(5), 887, 1960).
The equation of Y.P. Sun et al. for calculating the combined toxicity index is more fully explained below. […]

[7] = tested on: resistant strain of the greenhouse whitefly; assay: Test 6: effect on a resistant strain of the greenhouse whitefly (eggs on leaf sections, LC50); conditions: one-day-old eggs on kidney bean leaf sections sprayed, 25°C, twelve days after the treatment
Experimental: About 2 cm square sections of kidney bean leaves on which one-day-old eggs of the greenhouse whitefly had been deposited were placed on wetted absorbent cotton, sprayed with 4 ml each of various dilutions of 10% Anniverse Emulsion (Compound No.1), 0.6% Avermectin Emulsion or a mixture thereof by means of a tower sprayer, and maintained in a thermostatic chamber kept at 25°C. Twelve days after the treatment, the numbers of surviving insects, dead insects, unhatched eggs and escaping insects were examined. Thus, the survival rates at various concentrations were calculated and the LC₅₀ value (in ppm) was determined therefrom.

green peach aphid = assay: Test 7: effect on the green peach aphid living on eggplants (population density); conditions: Compound No.1 25 ppm, before treatment = 100
Experimental: After leaves naturally infested with green peach aphids were marked, eggplants were sprayed with a diluted fluid of 10% Anniverse Emulsion (Compound No.1), 0.6% Avermectin Emulsion or a mixture thereof to such an extent that the fluid dripped from their leaves. The number of green peach aphids living on the marked leaves was counted 2, 7, 14, 21 and 28 days after the treatment, and the corrected population density index was calculated according to the equation given below. Corrected population density index =((Number of insects after treatment in treated division)/(Number of insects before treatment in treated division))/((Number of insects after treatment in untreated division)/(Number of insects before treatment in untreated division))x 100 [formula]

[8] = compound of formula (1) alone 50 ppm, leaves sampled 2 days after treatment
[9] = compound of formula (1) alone 50 ppm, leaves sampled 7 days after treatment
[10] = compound of formula (1) alone 50 ppm, leaves sampled 14 days after treatment
[11] = compound of formula (1) alone 50 ppm, leaves sampled 21 days after treatment
[12] = compound of formula (1) alone 50 ppm, leaves sampled 28 days after treatment
[13] = compound of formula (1) alone 50 ppm, leaves sampled 35 days after treatment

## CCOc1ccc(C(C)(C)CCCc2ccc(F)c(Oc3ccccc3)c2)cc1 [Compound No.4]
[1]
  LC₅₀ value: 94 ppm
[2]; [8]
  Death rate: 94%
[2]; [9]
  Death rate: 65%
[2]; [10]
  Death rate: 60%
[2]; [11]
  Death rate: 10%
[2]; [12]
  Death rate: 0%
[2]; [13]
  Death rate: 0%

## CCOc1ccc(C(C)(C)CCCc2cccc(Oc3ccccc3)c2)cc1 [Compound No.3]
[1]
  LC₅₀ value: 519 ppm
[2]; [8]
  Death rate: 70%
[2]; [9]
  Death rate: 45%
[2]; [10]
  Death rate: 15%
[2]; [11]
  Death rate: 40%
[2]; [12]
  Death rate: 35%
[2]; [13]
  Death rate: 5%

## CCOc1ccc(C(C)(C)COCc2cccc(Oc3ccccc3)c2)cc1 [Compound No.2]
[1]
  LC₅₀ value: 375 ppm
[2]; [8]
  Death rate: 38%
[2]; [9]
  Death rate: 15%
[2]; [10]
  Death rate: 25%
[2]; [11]
  Death rate: 11%
[3]
  LC₅₀ value: 162 ppm

## CCOc1ccc([Si](C)(C)CCCc2ccc(F)c(Oc3ccccc3)c2)cc1 [Compound No.5]
[1]
  LC₅₀ value: 1150 ppm
[2]; [8]
  Death rate: 95%
[2]; [9]
  Death rate: 73%
[2]; [10]
  Death rate: 50%
[2]; [11]
  Death rate: 15%
[2]; [12]
  Death rate: 0%
[2]; [13]
  Death rate: 0%

## CC(C)(COCc1cccc(Oc2ccccc2)c1)c1ccc(OC(F)(F)Br)cc1 [Compound No.1]
Kanzawa spider mite; 2 days after treatment
  Number of living mites: 0
Kanzawa spider mite; 7 days after treatment
  Number of living mites: 0
Kanzawa spider mite; 12 days after treatment
  Number of living mites: 0
Kanzawa spider mite; 16 days after treatment
  Number of living mites: 27
Kanzawa spider mite; 27 days after treatment
  Number of living mites: 102
[4]
  LC₅₀ value: 2000 ppm
[5]
  LC₅₀ value: 11.5 ppm
[6]
  LC₅₀ value: 1.13 ppm
[2]; compound of formula (1) alone 25 ppm, leaves sampled 2 days after treatment
  Death rate: 90%
[2]; compound of formula (1) alone 25 ppm, leaves sampled 7 days after treatment
  Death rate: 10%
[2]; compound of formula (1) alone 25 ppm, leaves sampled 14 days after treatment
  Death rate: 0%
[2]; compound of formula (1) alone 25 ppm, leaves sampled 21 days after treatment
  Death rate: 0%
[7]
  LC₅₀ value: 630 ppm
[3]
  LC₅₀ value: 11.5 ppm
Green peach aphid; 2 days after treatment
  Corrected population density index: 0
Green peach aphid; 7 days after treatment
  Corrected population density index: 0.3
Green peach aphid; 14 days after treatment
  Corrected population density index: 2.5
Green peach aphid; 21 days after treatment
  Corrected population density index: 42.5
Green peach aphid; 28 days after treatment
  Corrected population density index: 96.5
